Experimental data as given in US6432426B1, “Non-staining topical iodine composition and method” (Symbollon Corporation, priority 1998, dated 2002).
Several values for one entry are separate records, joined by “and”; a condition that tells them apart may be missing. Equal entries are not always repeated.

Experiments:
Staphylococcus aureus = experiment: Residual biocidal effect of skin associated iodine, colony counts from inoculated treated skin; assay type: in vivo; conditions: 320 ppm saturated molecular iodine solution, 30 second contact; inoculated two hours after contact, sampled ninety minutes after inoculation
Procedure: 5. […] […] […] […] The samples were contacted with the arm for 30 seconds. After contact the treated arm was flushed with water for 15 seconds and dried.
[…] Two hours after contact each area was inoculated with […] of a 1:100 dilution of a 48 hour soy-trypticase culture of Staphylococcus aureus. Ninety minutes after inoculation the mouths of sterile 25 mL flasks filled with 2 mL of soy-trypticase with 2% Tween 80 were placed over the marked skin areas. The flasks were gently shaken for 1 minute and a colony count was performed on blood agar plates after incubation at 37° C. for 48 hours. The residual biocidal effect from skin associated molecular iodine was determined by subtracting the log of the colony counts from the areas of skin that were contacted with iodine from the controls (log colony count from untreated skin). The average difference in colony counts between treated and untreated skin was 2.4 logs.

[1] = test system: Staphylococcus epidermidis; experiment: Residual biocidal effect of skin associated iodine, repeated experiment; assay type: in vivo; conditions: saturated molecular iodine solution (320 ppm)
Candida albicans = experiment: as above; assay type: in vivo; conditions: saturated molecular iodine solution (320 ppm)
Salmonella typhimurium = experiment: as above; assay type: in vivo; conditions: saturated molecular iodine solution (320 ppm)
[2] = Sub dermal penetration of iodine measured by iodine analysis of 24 hour urine; assay type: in vivo, human; conditions: 300 ppm molecular iodine applied to skin 4 times over six hours; lines = Subjects 1-3 (prior: 95, 114, 106); listed as I2
Procedure: 11. The 300 ppm samples of molecular iodine described in Example 1 was used to confirm that molecular iodine will penetrate into skin and permeate into the skin to provide sub dermal tissue penetration.
Application of the iodine solution onto skin was performed as described in Example 1 above with two exceptions: (1) the contacted area was flushed with water for 15 seconds immediately after following contact between the iodine solution and skin and (2) the sample was applied to the skin once every 2 hours over a six hour time period (4 applications).
Twenty-four hour urine samples were collected on three subjects for the day immediately prior to the experiment. […] The urine samples were analyzed to determine their total iodine content. Urinary concentrations of total iodide were measured by utilizing the reduction-oxidation reaction between ceric ioni and arsenite ion catalyzed by iodide. […] Arsenious acid was added, the samples were transferred to an autoanalyzer, ceric ammonium sulfate was added “on line” and the optical transmission was measured spectrophometrically at 420 nm. […] If the yellow color fades to colorless (clear) within 1.5 minutes, the iodine content is too high to be measured. […] The % transmission was recorded and the concentration of iodine in each sample was determined by comparison to the standards.

II [Molecular Iodine, molecular iodine]
Average difference in colony counts between treated and untreated skin (Staphylococcus aureus): 2.4 logs
Residual biocidal efficacy on skin [1]: Efficacy was also demonstrated
Residual biocidal efficacy on skin (Candida albicans): Efficacy was also demonstrated
Residual biocidal efficacy on skin (Salmonella typhimurium): Efficacy was also demonstrated
24 Hour Urine iodine, Post I2 Application [2]: 647 ug iodine and 846 ug iodine and 741 ug iodine
